According to patent US4526891A, “Substituted alkyl amine derivatives of 6,11-dihydro-11-oxodibenz[b,e]oxepins” (Hoechst Roussel Pharmaceuticals Inc., priority 1983, dated 1985):
Read-outs that look alike come from different tables or passages of the source.

Tested on: 2-phenyl-1,4-benzoquinone-induced writhing
Assay: 2-phenyl-1,4-benzoquinone-induced writhing test in mice (analgesia)
Type: in vivo
Conditions: for ED50: Mus musculus
[1] = po, read-out: ED50 (dosage which exhibits 50% inhibition of writhing)

## O=C1c2ccccc2COc2ccc(CCN3CCN(c4ccccc4)CC3)cc21 [1-[2-(6,11-Dihydro-11-oxodibenz[b,e]oxepin-2-yl)ethyl]-4-phenylpiperazine]
Oral dose, ** ED50, 50% inhibition, read-out: ED50 (dosage which exhibits 50% inhibition of writhing)
  ED50: 25 mg/kg

## CN(C)CCc1ccc2c(c1)C(=O)c1ccccc1CO2.Cl [2-(6,11-Dihydro-11-oxodibenz[b,e]oxepin-2-yl)-N,N-dimethylethylamine hydrochloride]
25 mg/kg of body weight, subcutaneously (*)
  % Inhibition of writhing: 66%

## CNCCc1ccc2c(c1)C(=O)c1ccccc1CO2.Cl [2-(6,11-Dihydro-11-oxodibenz[b,e]oxepin-2-yl)-N-methylethylamine hydrochloride]
[1]
  ED50: 9.8 mg/kg

## Cl.NCCc1ccc2c(c1)C(=O)c1ccccc1CO2 [2-(6,11-Dihydro-11-oxodibenz[b,e]oxepin-2-yl)ethylamine hydrochloride]
[1]
  ED50: 7.4 mg/kg

## CCC(=O)O[C@](Cc1ccccc1)(c1ccccc1)[C@H](C)CN(C)C [propoxyphene, reference compound]
sc, read-out: dose giving 50% inhibition of writhing (ED50)
  ED50: 3.9 mg/kg
